Laboratory results published in patent publication US11419857B2, “Methods and compositions for treating pain” (Apkarian Technologies LLC, priority 2015, dated 2022).

Test system: iSPNs in NAc shell slices
Assay: Whole-cell patch-clamp recording of iSPN excitability in NAc shell slices, drugs bath applied
Type: cell-based, mice
Procedure: Current clamp recordings were performed to quantify firing properties.
Sulpiride and Bicifadine were obtained from Tocris. CBR12909 was obtained from Sigma-Aldrich. Drugs were bath applied for at least 15 min to establish equilibrium in the tissue.

SMILES | excitability of iSPNs (brain slices from sham mice, 5 μM) | excitability of iSPNs (slices from SNI mice, 5 μM) | excitability of iSPNs (slices from SNI mice, bath application 20 μM)
CCN1CCCC1CNC(=O)c1cc(S(N)(=O)=O)ccc1OC (stereo not drawn) [sulpiride] | increased the excitability of iSPNs | no detectable change in iSPNs excitability | 
Cc1ccc(C23CNCC2C3)cc1 (stereo not drawn) [bicifadine] |  |  | decreased the excitability of iSPNs
